The test system of data set [1] is PTEN. Description: In vivo evaluation of ssRNA formulated in lipid particle LNP06, liver PTEN mRNA (Example 77). Particulars: ssRNA formulated in LNP06, 4.5 mg/kg tail vein, C57BL/6 mice, liver PTEN mRNA normalized to GAPDH, 2 days post injection. Also on record: species or system mouse. The protocol: In accordance with the present disclosure, oligomeric compounds were synthesized and tested for their ability to reduce PTEN. C57BL/6 mice (Charles River Labs, MA) received either saline or LNP formulated single stranded RNA via tail vein injection at a volume of 0.01 mL/g and the single stranded RNA dose is 4.5 mg/kg. 25 groups of female mice and 9 modified ssRNAs targeting PTEN were formulated in LNP06 and tested. To determine liver mRNA levels of PTEN, 2 days post injection, animals were sacrificed and livers were harvested and snap frozen in liquid nitrogen. Liver lysates were prepared from the frozen tissues and liver mRNA levels of PTEN normalized to GAPDH were quantified using a branched DNA assay (QuantiGene Assay, Panomics, Calif.).

A short description of data set [2]: ssRNA stability in hepatocyte cell homogenate assay (Example 65). In kind it is in vitro ADME. As to conditions: mouse hepatocyte homogenate, LC-MS. The protocol: Hepatocytes were harvested from bal/c mice in ice-cold hepatocyte wash media (William E Media) with fetal bovine serum, sedimented by centrifugation at 1000 g for 8 minutes and then washed with hepatocyte wash media. Hepatocytes were homogenized with RIPA buffer (50 mM Tris pH 7.5, 10 mM MgCl2, 150 mM NaCl, 0.5% NP-40 alternative, one tablet of Roche protease inhibitor #11836170001), and centrifuged at 14000 g for 15 minutes at 4° C. and the supernatant was removed and stored in ice. Protein concentration (BSA mg/mL) was determined with Bradford assay and adjusted to a final protein concentration of 2 mg/mL by addition of Ripa buffer volume or cell homogenate volume.
[…] were homogenized in a homogenation buffer (20 mM Tris, pH 8, 20 mM EDTA and 0.1 M NaCl in 0.5% NP-40) at time points 0, 5, 10, 20, 30, 40 and 60 minutes (Exception: 06/408877 at time points 0, 15, 30, 60, 120 and 240 mins, 06/409044, at time points 0, 0.5, 1, 2, 4, 8, and 18 hours). An internal standard (18/355868, a 27-mer, 2′-O-methoxyethyl-modified phosphorothioate oligonucleotide, or 19/116847, a 5-10-5 gappmer, 2′-O-methoxyethyl-modified phosphorothioate oligonucleotide) with concentration at 20 ug/g was added prior to extraction. Tissue samples were extracted with 70 μL of NH4OH and 240 μL of phenol/chloroform/isoamyl alcohol (25:24:1). The supernatant was removed after centrifugation at 14000 rpm for 2 min. The remaining extractant was vortexed with an additional […] of water and the aqueous layer was removed and combined with the supernatant after centrifugation at 14000 rpm for 2 minutes.
Triethylammonium acetate solution at 1M ([…]) was added to the supernatant. The aqueous layer of the mixture was loaded onto the pre-conditioned Biotage™ Phenyl Solid Phase Extraction Plate (SPE plate) after centrifugation at 9000 rpm for 20 minutes. The SPE plate was washed several times with water. The sample was then eluted with 1.5 mL of 1% TEA in 90% MeOH and filtered through the Protein Precipitation Plate (Phenomenex™). The elutent was evaporated to dryness and diluted to 200 μL with 50% quenching buffer (8 M urea, 50 mM EDTA) and water before sample injection.
An Agilent 1100 Series LC/MSD system was connected in-line to a mass spectrometry. Mass spectrometer was operated in the electrospray negative ionization mode. The nebulizer nitrogen gas was set at […] and the drying nitrogen gas was set at 12 L/min. The drying temperature was 325° C. Samples (25 μL/well) were introduced via an auto sampler and reversed-phase chromatography was carried out with an XBridge OST C18 2.5 μm 2.1 mm×50 mm HPLC column using a flow rate of 300 μL/min at 55° C. The ion pair buffers consisted of A: 5 mM tributylammonium acetate (TBAA) in 20% acetonitrile and B: […] TBAA in 90% acetonitrile and the loading buffer was 25 mM TBAA in 25% Acetonitrile. Separation was performed on a 30% to 70% B in 9 min and then 80% B in 11 min gradient.
Quantitative analysis of oligonucleotide and internal standard by extracted ion chromatograms of the most abundant ions was performed using MSD ChemStation software. The results are expressed as half-time (T1/2) in the table below.

In data set [3] the test system is PTEN. The data set can be described thus: PTEN mRNA reduction in HeLa cells, dose response (Example 64). Particulars: real-time PCR, 1.56-50 nM. In kind it is cell-based, human. As to the method:
A dose response experiment was performed targeting PTEN in human HeLa cells to determine the effects of placement of sugar and internucleoside linkages within ssRNAs. More specifically, the modified ssRNAs were tested for their ability to reduce PTEN mRNA in cultured cells. The modified ssRNAs are shown below, and contain 2′-OMe and 2′-fluoro modified nucleosides, two 2′-O-MOE modified nucleosides at the 3′-terminus, and seven phosphorothioate linkages at the 3′-terminus of the ssRNAs.
HeLa cells were treated with ssRNAs shown below at concentrations of 1.56 nM, 3.13 nM, 6.25 nM, 12.5 nM, […] and 50 nM using methods described herein. Levels of mRNA were determined using real-time PCR methods as described herein. The IC50 for each ssRNA was determined.
For orientation: Real-time PCR tracks product formation cycle by cycle.

Strand notation (5' to 3'): a small letter for the sugar, then the base; units joined by * are phosphorothioate-linked, units joined directly phosphodiester-linked; [ ] holds rarer units or linkages, { } end groups; capitals alone tell only the bases. {PS2} = PS2 group (structure drawn in the publication); {PS} = PS group (structure drawn in the publication); e = 2'-O-(2-methoxyethyl) (MOE); m = 2'-O-methyl; {P} = phosphate; f = 2'-fluoro

As for “PS-TmoeUfGmUfCmUfCmUfGmGfUmCfCmUfUmAfCmUfUmAeAe (antisense {PS}-eT*fU*mGfU*mCfU*mCfU*mGfG*mUfC*mCfU*mU*fA*mC*fU*mU*eA*eA) [A-59889, modified ssRNA targeting PTEN]”, in the data set on PTEN [1], the “% Kd” value was 45%.
The same measure, in the same setting: for “P-TmoeUfGmUfCmUfCmUfGmGfUmCfCmUfUmAfCmUfUmAeAe (antisense {P}-eT*fU*mGfU*mCfU*mCfU*mGfG*mUfC*mCfU*mU*fA*mC*fU*mU*eA*eA) [A-53286, modified ssRNA targeting PTEN]” the value was 67%.
What is called IC50 is the concentration at which inhibition is half-maximal. Low readings indicate greater potency, high ones weaker potency. As to “P-UfUfGfUfCfUmCmUfGfGmUmCfCfUfUfAfCmUmUmTeTe (antisense UUGUCUCUGGUCCUUACUUTT; 5'-phosphate, modified nucleotides, chemistry not fully specified) [ISIS 409062, modified ssRNA targeting PTEN]”, in data set [2], the “T1/2 Test 1” value is 17 min. In the data set on PTEN [3], this substance gave an IC50 of 8.6 nM.
Take “P-UmUfGmUfCmUfCmUfGmGfUmCfCmUfUmAfCmUfUmAeAe (antisense UUGUCUCUGGUCCUUACUUAA; sugars from the 5' end mfmfmfmfmfmfmfmfmfmee, 5' {P}, backbone not given here) [ISIS 409044, modified ssRNA targeting PTEN]”: in data set [2], the “T1/2 Test 1” value was 240 min and the “T1/2 Test 2” value is 258 min. Moreover, half-maximal inhibition in the data set on PTEN [3] (IC50) was put at 10.5 nM.
Turning to “P-UfUfGfUfCfUfCmUfGmGfUmCfCmUfUmAfCmUfUmTeTe (antisense UUGUCUCUGGUCCUUACUUTT; 5'-phosphate, modified nucleotides, chemistry not fully specified) [ISIS 409049, modified ssRNA targeting PTEN]”, the “T1/2 Test 1” value in data set [2] turned out to be 13 min. In the data set on PTEN [3], this substance came in with a half-inhibitory concentration (IC50) of 16.2 nM.
As for “P-UmUfGfUfCfUmCmUfGfGmUmCfCfUfUfAfCmUmUmAeAe (antisense UUGUCUCUGGUCCUUACUUAA; sugars from the 5' end mffffmmffmmfffffmmmee, 5' {P}, backbone not given here) [ISIS 408877, modified ssRNA targeting PTEN]”, in data set [2], the “T1/2 Test 1” value amounted to 30 min and the “T1/2 Test 2” value was 24 min. Also, in the data set with PTEN [3], half-maximal inhibition (IC50) required 7 nM.
With “P-USSUfGmUfCmUfCmUfGmGfUmCfCmUfUmAfCmUfUmAeAe (antisense TUGUCUCUGGUCCUUACUUAA; 5'-phosphate, 2'-F/2'-OMe, MOE modifications, chemistry not fully specified) [ISIS 467088, modified ssRNA targeting PTEN]”, the “% Kd” value with PTEN [1] was found to be 50%.
As for “P-UfUfGfUfCfUmCmUfGfGmUmCfCfUfUfAfCmUmUmAeAe (antisense UUGUCUCUGGUCCUUACUUAA; sugars from the 5' end fffffmmffmmfffffmmmee, 5' {P}, backbone not given here) [ISIS 408874, modified ssRNA targeting PTEN]”, in data set [2], the “T1/2 Test 1” value is given as 22 min and the “T1/2 Test 2” value is on record as 18 min. This substance also yielded a concentration for half-maximal inhibition (IC50) in the data set on PTEN [3] of 6 nM.
As for “PS2-TmoeUfGmUfCmUfCmUfGmGfUmCfCmUfUmAfCmUfUmAeAe (antisense {PS2}-eT*fU*mGfU*mCfU*mCfU*mGfG*mUfC*mCfU*mU*fA*mC*fU*mU*eA*eA) [A-59890, modified ssRNA targeting PTEN]”, the “% Kd” value with PTEN [1] is listed as 31%.
Turning to “UfUfGfUfCfUfCmUfGmGfUmCfCmUfUmAfCmUfUmAeAe (UUGUCUCUGGUCCUUACUUAA; sugars from the 5' end ffffffmfmfmfmfmfmfmee, backbone not given here) [ISIS 407047, modified ssRNA targeting PTEN]”, the “T1/2 Test 1” value in data set [2] amounted to 6 min. The substance further had an IC50 in the data set with PTEN [3] of 3.5 nM.

Source of the values: patent US20130156845A1, “LIPID FORMULATED SINGLE STRANDED RNA” (ALNYLAM PHARMACEUTICALS, INC., priority 2010, published 2013).
